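Method: 48-hour compound exposure of cells in 96-well plates, five concentrations, linear interpolation of endpoints. GI50: concentration for 50% inhibition of growth. TGI marks complete inhibition of growth.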

Here are results for eleven compounds from PubChem BioAssay (NCI).

Test systems include 786-0 renal; ACHN renal; HCT-15 colon; HOP-62 NSCLC; OVCAR-3 ovarian; RPMI-8226 leukemia; SF-539 CNS; SK-MEL-28 melanoma; UACC-257 melanoma; T-47D breast.
Holding throughout (experiment): NCI anticancer screen, dose series, 48 h

For the compound `O=C([O-])c1ccccc1Nc1ccccc1C(=O)[O-].[OH3+].[Zn+2]`, the TGI in the assay with 786-0 renal is 57.7 µM; in the assay on ACHN renal, over 100 µM; in the assay on HCT-15 colon, over 100 µM; in the assay on HOP-62 NSCLC it was over 58.5 µM; in the assay on OVCAR-3 ovarian, 32.9 µM; in the assay with RPMI-8226 leukemia it was over 100 µM. For the same compound, the TGI with SF-539 CNS is over 82.9 µM; with SK-MEL-28 melanoma, 40.7 µM; with UACC-257 melanoma, 21.5 µM.
`COc1cc(/C=C2\C(=O)Nc3ccc(Cl)cc32)cc(OC)c1OC`: the GI50 with ACHN renal is 23.5 µM; in the assay on HCT-15 colon it was 9.16 µM; in the assay with OVCAR-3 ovarian it was 19.6 µM; with RPMI-8226 leukemia, 3.9 µM; in the assay on SF-539 CNS, 16.8 µM; in the assay with SK-MEL-28 melanoma, over 100 µM. Further, the GI50 with T-47D breast was over 100 µM; in the assay on UACC-257 melanoma, 29.5 µM. Also, the TGI in the assay with ACHN renal was over 100 µM; in the assay with HCT-15 colon, over 100 µM; in the assay with OVCAR-3 ovarian, over 100 µM; in the assay with RPMI-8226 leukemia, over 100 µM; with SF-539 CNS, 45.6 µM; in the assay on SK-MEL-28 melanoma it was over 100 µM. Also, the TGI with T-47D breast and in the assay on UACC-257 melanoma was over 100 µM in each case.
As for `O=C1NCN(c2ccccc2)C12CCN(CCCN1CCN(CCOC(c3ccccc3)c3ccccc3)CC1)CC2`, the TGI amounted to 2.31 µM in the assay on 786-0 renal; 5.88 µM in the assay with ACHN renal; 5.19 µM in the assay on HCT-15 colon; 6.6 µM in the assay on HOP-62 NSCLC; 6.93 µM in the assay on OVCAR-3 ovarian; 5.23 µM in the assay with RPMI-8226 leukemia. Further, the TGI in the assay on SF-539 CNS worked out at 2.48 µM; with SK-MEL-28 melanoma, 2.42 µM; with T-47D breast, 7.18 µM; with UACC-257 melanoma, 2.7 µM.
Take `CCCCC1Nc2ccccc2-c2ccnc(Cl)c21` (configuration not stated): the TGI came to 45.2 µM with 786-0 renal; 68.4 µM with ACHN renal; 44.4 µM with HCT-15 colon; 53.3 µM in the assay on HOP-62 NSCLC; 25.2 µM in the assay on OVCAR-3 ovarian; 31.9 µM in the assay with RPMI-8226 leukemia. Also, the TGI in the assay with SF-539 CNS was found to be 41.8 µM; with SK-MEL-28 melanoma, 46.5 µM; in the assay with UACC-257 melanoma, 42.3 µM.
With `Cc1cc(C)n(CN(CCCCO)Cn2nc(C)cc2C)n1`, the TGI with 786-0 renal was 36.7 µM; in the assay on ACHN renal, 39.4 µM; in the assay on HCT-15 colon, 34.7 µM; with HOP-62 NSCLC it was 47.6 µM; in the assay with OVCAR-3 ovarian, 58 µM; with RPMI-8226 leukemia, 20.3 µM. Also, the TGI in the assay on SF-539 CNS worked out at 36.2 µM; in the assay with SK-MEL-28 melanoma, 39.3 µM; with T-47D breast it was 66.5 µM; in the assay on UACC-257 melanoma it was 80 µM.
As for `N=C1c2ccccc2C(=O)c2c(NCCNCCO)ccc(O)c21`, the TGI was over 38.7 µM with 786-0 renal; 57 µM with ACHN renal; over 63 µM with HCT-15 colon; 22.5 µM in the assay with HOP-62 NSCLC; 52.7 µM in the assay on OVCAR-3 ovarian; 24.6 µM in the assay on RPMI-8226 leukemia. In addition, the TGI in the assay with SF-539 CNS was 16.3 µM; in the assay on SK-MEL-28 melanoma, 23.2 µM; in the assay on UACC-257 melanoma it was over 51.6 µM.
As to `COC1=CC(c2ccc[nH]2)=N/C1=C\c1[nH]c(C)c(CC(=O)NCc2ccccc2)c1C`, the GI50 was 1.75 µM in the assay on ACHN renal; 1.06 µM with HCT-15 colon; 1.51 µM in the assay with HOP-62 NSCLC; 1.46 µM in the assay on OVCAR-3 ovarian; 1.89 µM with SF-539 CNS; 1.72 µM in the assay with UACC-257 melanoma. The TGI with ACHN renal amounted to 3.28 µM; in the assay on HCT-15 colon, 2.45 µM; in the assay with HOP-62 NSCLC, 2.95 µM; in the assay with OVCAR-3 ovarian, 2.91 µM; with SF-539 CNS, 3.51 µM; in the assay with UACC-257 melanoma it was 3.17 µM.
In the case of `COc1cc2c(c(OC)c1OC)-c1ccc(OC)c(=O)cc1C(NC(=O)CCCCCNc1ccc(N=[N+]=[N-])cc1[N+](=O)[O-])CC2` (configuration not stated), the TGI in the assay on ACHN renal is 24.4 µM; in the assay with HCT-15 colon, 0.245 µM; with HOP-62 NSCLC, over 31.6 µM; with OVCAR-3 ovarian, under 0.0152 µM; in the assay on RPMI-8226 leukemia, under 0.01 µM; with SF-539 CNS, under 0.01 µM. The TGI in the assay with SK-MEL-28 melanoma was 25 µM; with T-47D breast, over 31.6 µM.
With `O=S(=O)(O)c1ccc(N=Nc2ccc(N=Nc3c(O)ccc4ccc(S(=O)(=O)O)cc34)cc2)cc1`, the TGI in the assay with 786-0 renal, in the assay on ACHN renal, in the assay on HCT-15 colon, in the assay with HOP-62 NSCLC, in the assay on OVCAR-3 ovarian and with RPMI-8226 leukemia was over 100 µM each time. The TGI in the assay with SF-539 CNS, with SK-MEL-28 melanoma, in the assay on T-47D breast and in the assay with UACC-257 melanoma was over 100 µM throughout.
On to `CC(C)(C)c1ccc(NS(=O)(=O)c2ccc(N)cc2)cc1`, for which the TGI with 786-0 renal is 52.1 µM; in the assay with ACHN renal, 83.6 µM; in the assay with HCT-15 colon, over 100 µM; with HOP-62 NSCLC, 13.7 µM; in the assay with OVCAR-3 ovarian, 12.9 µM; in the assay with RPMI-8226 leukemia, 30.6 µM. Besides, the TGI was 41.7 µM with SF-539 CNS, 63.7 µM with SK-MEL-28 melanoma, over 100 µM with T-47D breast and over 100 µM in the assay with UACC-257 melanoma.
Turning to `COc1ccccc1N1C(=O)CSC1c1cccc(Oc2ccccc2)c1` (configuration not stated), the TGI was 32.5 µM with 786-0 renal; 38.2 µM in the assay on ACHN renal; 37.4 µM in the assay on HCT-15 colon; 45.7 µM in the assay with HOP-62 NSCLC; 45.1 µM with OVCAR-3 ovarian; 31.6 µM with SF-539 CNS. Moreover, the TGI in the assay with SK-MEL-28 melanoma was found to be 34.6 µM; in the assay on T-47D breast it was 58.1 µM; in the assay on UACC-257 melanoma it was 33.6 µM.
